Measured values reported in PubChem BioAssay AID288 (DTP/NCI, 2004).
Where “and” joins values, the source holds several entries; their conditions need not be identical. Equal values may be shown once. Inconclusive results are not listed.

System: BDF1 mice, M5076 sarcoma s.c., survival/tumor T/C
Assay: NCI In Vivo Anticancer Drug Screen. Data for tumor model Sarcoma M5076 (subcutaneous) in B6D2F1 (BDF1) mice
Method: The antitumor activity of compounds was measured in mice bearing transplantable tumors. Survival or tumor size were measured and the results are expressed as the measurement made in the treated group (T) divided by the measurement made in the vehicle treated control group (C). The tumor model used in this assay is Sarcoma M5076 (subcutaneous) in B6D2F1 (BDF1) mice

[1] = endpoint: median survival time, dose: 50.0 mg/kg/injection, schedule: Q01DX009 (ip), vehicle: saline with Tween-80, higher = longer survival
[2] = endpoint: median survival time, dose: 100.0 mg/kg/injection, schedule: Q01DX009 (ip), vehicle: saline with Tween-80, higher = longer survival
[3] = endpoint: median survival time, dose: 200.0 mg/kg/injection, schedule: Q01DX009 (ip), vehicle: saline with Tween-80, higher = longer survival

With `CC(C)[C@](O)(C(=O)OCC1=CC[N+]2([O-])CC[C@@H](O)[C@@H]12)[C@H](C)O` (some centres not stated) the T/C (endpoint: mean tumor weight, dose: 75.0 mg/kg/injection, schedule: Q02DX011 (ip), vehicle: saline, higher = larger tumour) was 96 % of control, the T/C (endpoint: mean tumor weight, dose: 100.0 mg/kg/injection, schedule: Q02DX011 (ip), vehicle: saline, higher = larger tumour) was 53 % of control and the T/C (endpoint: mean tumor weight, dose: 150.0 mg/kg/injection, schedule: Q02DX011 (ip), vehicle: saline, higher = larger tumour) was 82 % of control. The T/C (endpoint: mean tumor weight, dose: 200.0 mg/kg/injection, schedule: Q02DX011 (ip), vehicle: saline, higher = larger tumour) was 37 % of control, the T/C (endpoint: mean tumor weight, dose: 300.0 mg/kg/injection, schedule: Q02DX011 (ip), vehicle: saline, higher = larger tumour) was 6 % of control and the T/C (endpoint: mean tumor weight, dose: 400.0 mg/kg/injection, schedule: Q02DX011 (ip), vehicle: saline, higher = larger tumour) was 13 % of control. For the same molecule, the T/C (endpoint: median survival time, dose: 200.0 mg/kg/injection, schedule: Q01DX007 (ip), vehicle: saline, higher = longer survival) was 95 % of control, the T/C (endpoint: median survival time, dose: 400.0 mg/kg/injection, schedule: Q01DX007 (ip), vehicle: saline, higher = longer survival) was 117 % of control and the T/C (endpoint: median survival time, dose: 540.0 mg/kg/injection, schedule: Q04DX003 (ip), vehicle: saline, higher = longer survival) was 104 % of control. The T/C (endpoint: median survival time, dose: 800.0 mg/kg/injection, schedule: Q01DX007 (ip), vehicle: saline, higher = longer survival) was 110 % of control, the T/C (endpoint: median survival time, dose: 800.0 mg/kg/injection, schedule: Q04DX003 (ip), vehicle: saline, higher = longer survival) was 112 % of control and the T/C (endpoint: median survival time, dose: 1200.0 mg/kg/injection, schedule: Q04DX003 (ip), vehicle: saline, higher = longer survival) was 114 % of control. For the same molecule, the T/C (endpoint: median tumor weight (est.), dose: 75.0 mg/kg/injection, schedule: Q02DX011 (ip), vehicle: saline, higher = larger tumour) was 89 % of control, the T/C (endpoint: median tumor weight (est.), dose: 100.0 mg/kg/injection, schedule: Q02DX011 (ip), vehicle: saline, higher = larger tumour) was 56 % of control and the T/C (endpoint: median tumor weight (est.), dose: 150.0 mg/kg/injection, schedule: Q02DX011 (ip), vehicle: saline, higher = larger tumour) was 82 % of control. The T/C (endpoint: median tumor weight (est.), dose: 200.0 mg/kg/injection, schedule: Q02DX011 (ip), vehicle: saline, higher = larger tumour) was 39 % of control, the T/C (endpoint: median tumor weight (est.), dose: 300.0 mg/kg/injection, schedule: Q02DX011 (ip), vehicle: saline, higher = larger tumour) was 3 % of control and the T/C (endpoint: median tumor weight (est.), dose: 400.0 mg/kg/injection, schedule: Q02DX011 (ip), vehicle: saline, higher = larger tumour) was 14 % of control.
With `N[C@@H](Cc1ccc(N(CCCl)CCCl)cc1)C(=O)O` the T/C (endpoint: median survival time, dose: 0.75 mg/kg/injection, schedule: Q04DX006 (ip), vehicle: saline, higher = longer survival) was 105 % of control, the T/C (endpoint: median survival time, dose: 1.5 mg/kg/injection, schedule: Q04DX006 (ip), vehicle: saline, higher = longer survival) was 111 % of control and the T/C (endpoint: median survival time, dose: 3.0 mg/kg/injection, schedule: Q02DX033 (ip), vehicle: saline, higher = longer survival) was 230 % of control. For the same molecule, the T/C (endpoint: median survival time, dose: 3.0 mg/kg/injection, schedule: Q04DX006 (ip), vehicle: saline, higher = longer survival) was 121 % of control and the T/C (endpoint: median survival time, dose: 3.24 mg/kg/injection, schedule: Q01DX001 (ip), vehicle: saline, higher = longer survival) was 154 % of control and 155 % of control.
In the case of `CCN1Cc2c(/C=C/c3ccccc3)nc3ccc(OC)cc3c2N(c2cccc(Cl)c2)C1`, the T/C [1] is reported as 99 % of control, the T/C [2] is reported as 99 % of control and the T/C [3] is reported as 105 % of control. The T/C (endpoint: median tumor weight (est.), dose: 50.0 mg/kg/injection, schedule: Q01DX009 (ip), vehicle: saline with Tween-80, higher = larger tumour) was 60 % of control, the T/C (endpoint: median tumor weight (est.), dose: 100.0 mg/kg/injection, schedule: Q01DX009 (ip), vehicle: saline with Tween-80, higher = larger tumour) was 105 % of control and the T/C (endpoint: median tumor weight (est.), dose: 200.0 mg/kg/injection, schedule: Q01DX009 (ip), vehicle: saline with Tween-80, higher = larger tumour) was 73 % of control.
With `Nc1nncs1` the T/C (endpoint: mean tumor weight, dose: 18.8 mg/kg/injection, schedule: Q02DX011 (ip), vehicle: saline, higher = larger tumour) was 43 % of control, the T/C (endpoint: mean tumor weight, dose: 37.5 mg/kg/injection, schedule: Q02DX011 (ip), vehicle: saline, higher = larger tumour) was 3 % of control and the T/C (endpoint: median survival time, dose: 6.25 mg/kg/injection, schedule: Q01DX009 (ip), vehicle: saline, higher = longer survival) was 103 % of control. The T/C (endpoint: median survival time, dose: 12.5 mg/kg/injection, schedule: Q01DX009 (ip), vehicle: saline, higher = longer survival) was 111 % of control, the T/C (endpoint: median survival time, dose: 25.0 mg/kg/injection, schedule: Q01DX009 (ip), vehicle: saline, higher = longer survival) was 121 % of control and the T/C (endpoint: median survival time, dose: 50.0 mg/kg/injection, schedule: Q01DX009 (ip), vehicle: saline, higher = longer survival) was 122 % of control. The T/C (endpoint: median tumor weight (est.), dose: 6.25 mg/kg/injection, schedule: Q01DX009 (ip), vehicle: saline, higher = larger tumour) was 75 % of control, the T/C (endpoint: median tumor weight (est.), dose: 12.5 mg/kg/injection, schedule: Q01DX009 (ip), vehicle: saline, higher = larger tumour) was 53 % of control and the T/C (endpoint: median tumor weight (est.), dose: 18.8 mg/kg/injection, schedule: Q02DX011 (ip), vehicle: saline, higher = larger tumour) was 47 % of control. For the same molecule, the T/C (endpoint: median tumor weight (est.), dose: 25.0 mg/kg/injection, schedule: Q01DX009 (ip), vehicle: saline, higher = larger tumour) was 22 % of control.
`Nc1nc(SCC(=O)O)[nH]c(=O)c1N` was tested, and the T/C [1] was 93 % of control, the T/C [2] was 105 % of control and the T/C [3] was 110 % of control.
